# Laboratory results taken from PubChem BioAssay (NCI).
#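 Assay format: 96-well plates, 48-hour exposure. At the GI50, growth is halved. TGI denotes the concentration required for complete inhibition of growth.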
# Columns and labels:
# Assay in all cases: NCI-60 cell line screen, 48 h
# OVCAR-5 ovarian = tested on: OVCAR-5 ovarian
# SN12C renal = tested on: SN12C renal
# MDA-MB-231 breast = tested on: MDA-MB-231 breast
# T-47D breast = tested on: T-47D breast
# A549 NSCLC = tested on: A549 NSCLC
# SK-OV-3 ovarian = tested on: SK-OV-3 ovarian
# MDA-MB-435 = tested on: MDA-MB-435
# LOX IMVI melanoma = tested on: LOX IMVI melanoma
# NCI-H522 lung = tested on: NCI-H522 lung
# SNB-19 CNS = tested on: SNB-19 CNS
# SR leukemia = tested on: SR leukemia
# HOP-62 NSCLC = tested on: HOP-62 NSCLC
# K-562 leukemia = tested on: K-562 leukemia
# EKVX NSCLC = tested on: EKVX NSCLC
# DU-145 prostate = tested on: DU-145 prostate
# MCF7 breast = tested on: MCF7 breast
# NCI/ADR-RES ovarian = tested on: NCI/ADR-RES ovarian
# IGROV1 ovarian = tested on: IGROV1 ovarian
# HS 578T breast = tested on: HS 578T breast
# PC-3 prostate = tested on: PC-3 prostate
# TK-10 renal = tested on: TK-10 renal
# HCT-15 colon = tested on: HCT-15 colon
# SF-539 CNS = tested on: SF-539 CNS
# UACC-257 melanoma = tested on: UACC-257 melanoma
# MOLT-4 leukemia = tested on: MOLT-4 leukemia
# SF-295 CNS = tested on: SF-295 CNS
# RXF 393 renal = tested on: RXF 393 renal
# UACC-62 melanoma = tested on: UACC-62 melanoma
# SNB-75 CNS = tested on: SNB-75 CNS
# MALME-3M melanoma = tested on: MALME-3M melanoma
# HCT-116 colon = tested on: HCT-116 colon
# UO-31 renal = tested on: UO-31 renal
# CCRF-CEM leukemia = tested on: CCRF-CEM leukemia
# 786-0 renal = tested on: 786-0 renal
# KM12 colon = tested on: KM12 colon
# NCI-H226 lung = tested on: NCI-H226 lung
# SK-MEL-28 melanoma = tested on: SK-MEL-28 melanoma
# OVCAR-8 ovarian = tested on: OVCAR-8 ovarian
# ACHN renal = tested on: ACHN renal
# SK-MEL-2 melanoma = tested on: SK-MEL-2 melanoma
# CAKI-1 renal = tested on: CAKI-1 renal
# COLO 205 colon = tested on: COLO 205 colon
# NCI-H23 lung = tested on: NCI-H23 lung
# SK-MEL-5 melanoma = tested on: SK-MEL-5 melanoma
# NCI-H460 lung = tested on: NCI-H460 lung
# SW-620 colon = tested on: SW-620 colon
# HT29 colon = tested on: HT29 colon
# SF-268 CNS = tested on: SF-268 CNS
# BT-549 breast = tested on: BT-549 breast
# HL-60(TB) leukemia = tested on: HL-60(TB) leukemia
# M14 melanoma = tested on: M14 melanoma
# U251 CNS = tested on: U251 CNS
# OVCAR-3 ovarian = tested on: OVCAR-3 ovarian
# HCC-2998 colon = tested on: HCC-2998 colon
# HOP-92 NSCLC = tested on: HOP-92 NSCLC
# OVCAR-4 ovarian = tested on: OVCAR-4 ovarian
# A498 renal = tested on: A498 renal
# RPMI-8226 leukemia = tested on: RPMI-8226 leukemia
smiles,measurement,setting,value
COc1cc(/C=C/C(=O)c2cc(OC)c(OC)c(OC)c2)ccc1Oc1nc(NCCO)nc(N2CCOCC2)n1,GI50,OVCAR-5 ovarian,3.14 µM
same,TGI,OVCAR-5 ovarian,10.6 µM
same,GI50,SN12C renal,1.79 µM
same,TGI,SN12C renal,5.72 µM
same,GI50,MDA-MB-231 breast,2.86 µM
same,TGI,MDA-MB-231 breast,11.3 µM
same,GI50,T-47D breast,3.12 µM
same,TGI,T-47D breast,11.8 µM
same,GI50,A549 NSCLC,2.78 µM
same,TGI,A549 NSCLC,9.4 µM
same,GI50,SK-OV-3 ovarian,2.44 µM
same,TGI,SK-OV-3 ovarian,6.34 µM
same,GI50,MDA-MB-435,3.1 µM
same,TGI,MDA-MB-435,11 µM
same,GI50,LOX IMVI melanoma,0.642 µM
same,TGI,LOX IMVI melanoma,2.04 µM
same,GI50,NCI-H522 lung,1.56 µM
same,TGI,NCI-H522 lung,3.17 µM
same,GI50,SNB-19 CNS,2.31 µM
same,TGI,SNB-19 CNS,7.07 µM
same,GI50,SR leukemia,0.784 µM
same,TGI,SR leukemia,4.8 µM
same,GI50,HOP-62 NSCLC,2.35 µM
same,TGI,HOP-62 NSCLC,6.04 µM
same,GI50,K-562 leukemia,1.91 µM
same,TGI,K-562 leukemia,> 100 µM
same,GI50,EKVX NSCLC,2.81 µM
same,TGI,EKVX NSCLC,9.99 µM
same,GI50,DU-145 prostate,2.99 µM
same,TGI,DU-145 prostate,12.4 µM
same,GI50,MCF7 breast,1.72 µM
same,TGI,MCF7 breast,10.8 µM
same,GI50,NCI/ADR-RES ovarian,4.72 µM
same,TGI,NCI/ADR-RES ovarian,23.4 µM
same,GI50,IGROV1 ovarian,2.45 µM
same,TGI,IGROV1 ovarian,6.17 µM
same,GI50,HS 578T breast,3.62 µM
same,TGI,HS 578T breast,22.4 µM
same,GI50,PC-3 prostate,3.11 µM
same,TGI,PC-3 prostate,13.5 µM
same,GI50,TK-10 renal,3.12 µM
same,TGI,TK-10 renal,8.93 µM
same,GI50,HCT-15 colon,1.6 µM
same,TGI,HCT-15 colon,4.01 µM
same,GI50,SF-539 CNS,1.88 µM
same,TGI,SF-539 CNS,4.58 µM
same,GI50,UACC-257 melanoma,2.83 µM
same,TGI,UACC-257 melanoma,12.7 µM
same,GI50,MOLT-4 leukemia,1.98 µM
same,TGI,MOLT-4 leukemia,8.02 µM
same,GI50,SF-295 CNS,2.9 µM
same,TGI,SF-295 CNS,10.6 µM
same,GI50,RXF 393 renal,1.75 µM
same,TGI,RXF 393 renal,3.48 µM
same,GI50,UACC-62 melanoma,1.69 µM
same,TGI,UACC-62 melanoma,3.19 µM
same,GI50,SNB-75 CNS,1.79 µM
same,TGI,SNB-75 CNS,6.2 µM
same,GI50,MALME-3M melanoma,2.67 µM
same,TGI,MALME-3M melanoma,6.74 µM
same,GI50,HCT-116 colon,1.53 µM
same,TGI,HCT-116 colon,3.23 µM
same,GI50,UO-31 renal,1.66 µM
same,TGI,UO-31 renal,3.28 µM
same,GI50,CCRF-CEM leukemia,2.38 µM
same,TGI,CCRF-CEM leukemia,23.5 µM
same,GI50,786-0 renal,3.46 µM
same,TGI,786-0 renal,13 µM
same,GI50,KM12 colon,2.99 µM
same,TGI,KM12 colon,9.63 µM
same,GI50,NCI-H226 lung,3.69 µM
same,TGI,NCI-H226 lung,19.7 µM
same,GI50,SK-MEL-28 melanoma,1.92 µM
same,TGI,SK-MEL-28 melanoma,3.81 µM
same,GI50,OVCAR-8 ovarian,2.56 µM
same,TGI,OVCAR-8 ovarian,10.1 µM
same,GI50,ACHN renal,1.64 µM
same,TGI,ACHN renal,3.6 µM
same,GI50,SK-MEL-2 melanoma,2.76 µM
same,TGI,SK-MEL-2 melanoma,8.19 µM
same,GI50,CAKI-1 renal,2.43 µM
same,TGI,CAKI-1 renal,9.16 µM
same,GI50,COLO 205 colon,2.1 µM
same,TGI,COLO 205 colon,4.39 µM
same,GI50,NCI-H23 lung,1.99 µM
same,TGI,NCI-H23 lung,4.8 µM
same,GI50,SK-MEL-5 melanoma,1.77 µM
same,TGI,SK-MEL-5 melanoma,3.31 µM
same,GI50,NCI-H460 lung,1.87 µM
same,TGI,NCI-H460 lung,4.03 µM
same,GI50,SW-620 colon,2.24 µM
same,TGI,SW-620 colon,5.78 µM
same,GI50,HT29 colon,2.83 µM
same,TGI,HT29 colon,8.44 µM
same,GI50,SF-268 CNS,3.02 µM
same,TGI,SF-268 CNS,12.9 µM
same,GI50,BT-549 breast,1.6 µM
same,TGI,BT-549 breast,3.32 µM
same,GI50,HL-60(TB) leukemia,1.54 µM
same,TGI,HL-60(TB) leukemia,6.8 µM
same,GI50,M14 melanoma,2.38 µM
same,TGI,M14 melanoma,7.32 µM
same,GI50,U251 CNS,1.62 µM
same,TGI,U251 CNS,3.12 µM
same,GI50,OVCAR-3 ovarian,3.2 µM
same,TGI,OVCAR-3 ovarian,10.6 µM
same,GI50,HCC-2998 colon,2.23 µM
same,TGI,HCC-2998 colon,4.22 µM
same,GI50,HOP-92 NSCLC,2.75 µM
same,TGI,HOP-92 NSCLC,9.99 µM
same,GI50,OVCAR-4 ovarian,2.92 µM
same,TGI,OVCAR-4 ovarian,10.5 µM
same,GI50,A498 renal,3.58 µM
same,TGI,A498 renal,13.3 µM
same,GI50,RPMI-8226 leukemia,1.63 µM
same,TGI,RPMI-8226 leukemia,5.85 µM
